Assay results as given in patent US20220218852A1, “NOVEL RADIOLABELLED CXCR4-TARGETING COMPOUNDS FOR DIAGNOSIS AND THERAPY” (PROVINCIAL HEALTH SERVICES AUTHORITY, priority 2019, published 2022).
Read-outs that look alike come from different tables or passages of the source. Positions of bridges follow the written chain, without caps; N, C: chain ends. Non-standard residues stand in square brackets, D forms with d. Residues, ends and D or L forms follow the SMILES beside them. Groups on a side chain read outwards from the residue. *: point of attachment. X1 = O=C(O)CC[C@H](NC(=O)CN1CCN(CC(=O)O)CCN(CC(=O)O)CCN(CC(=O)O)CC1)C(=O)N[C@@H](CCCCNC(=O)CNC(=O)CCCc1ccc(F)cc1)C(=O)*; X2 = Cc1ccc(CCCC(=O)NCC(=O)NCCCC[C@H](NC(=O)[C@H](CCC(=O)O)NC(=O)CN2CCN(CC(=O)O)CCN(CC(=O)O)CCN(CC(=O)O)CC2)C(=O)*)cc1; 2Nal = N[C@@H](Cc1ccc2ccccc2c1)C(=O)O; Lys(iPr) = CC(C)NCCCC[C@H](N)C(=O)O

Tests used:
[1] = Biodistribution in Daudi tumor-bearing mice; type: in vivo; settings: male, NOD.Cg-Rag1^tm1MomII2rg^tm1Wjl/SzJ (NRG), mouse, iv, total radioactivity; for tissue uptake at 3 h: Daudi tumor-bearing mice; for tissue uptake at 1 h: Daudi xenograft bearing mice
Method: (§1) For Daudi, Z138, GRANTA519 and Jeko1 xenografts, male NOD.Cg-Rag1^tm1MomII2rg^tm1Wjl/SzJ (NRG) mice were subcutaneously inoculated on the left flank with 5×10^6 cells (100 μL; 1:1 ratio of PBS/Matrigel) and tumors were grown to a size of 200-500 mm^3. For PC-3 xenografts, male NOD.Cg-Rag1^tm1MomII2rg^tm1Wjl/SzJ (NRG) mice were subcutaneously inoculated on the left flank with 5×10^6 PC-3 cells (100 μL; 1:1 ratio of PBS/Matrigel) and tumors were grown to a size of 200-400 mm^3.
(§2) The mice were euthanized via CO2 inhalation while anesthetized with isoflurane. Tissues were harvested, washed in PBS, blotted dry, weighed, and measured on a Hidex AMG Automatic Gamma Counter.

[2] = tested on: Daudi Burkitt's lymphoma xenografts; assay: Biodistribution in Daudi tumor-bearing mice; type: in vivo; settings: for Ratio Tumor: Blood / Ratio Tumor: Bone / Ratio Tumor: Liver / Ratio Tumor: Lung / Ratio Tumor: Muscle / Ratio Tumor: Spleen: Daudi tumor-bearing mice, 3 h; for Ratio Tumour:Blood / Ratio Tumour:Bone / Ratio Tumour:Liver / Ratio Tumour:Lung / Ratio Tumour:Muscle / Ratio Tumour:Spleen: Daudi xenograft bearing mice, 1 h
Method: as §1, §2

[3] = Daudi tumor, read-out: Biodistribution Daudi (tumor)
[4] = Daudi tumour, read-out: Biodistribution Daudi (tumour)
[5] = adrenals, read-out: Biodistribution Adrenals
[6] = blood, read-out: Biodistribution Blood
[7] = bone, read-out: Biodistribution Bone
[8] = brain, read-out: Biodistribution Brain
[9] = fat, read-out: Biodistribution Fat
[10] = heart, read-out: Biodistribution Heart
[11] = intestine, read-out: Biodistribution Intestine
[12] = kidney, read-out: Biodistribution Kidney
[13] = liver, read-out: Biodistribution Liver
[14] = lung, read-out: Biodistribution Lung
[15] = muscle, read-out: Biodistribution Muscle
[16] = pancreas, read-out: Biodistribution Pancreas
[17] = spleen, read-out: Biodistribution Spleen
[18] = stomach, read-out: Biodistribution Stomach
[19] = testes, read-out: Biodistribution Testes

CC(C)NCCCC[C@@H]1NC(=O)[C@H](Cc2ccc(O)cc2)NC(=O)[C@H](Cc2ccccc2)NC(=O)CC[C@H](C(=O)N[C@@H](CCCCNC(C)C)C(=O)N[C@@H](CCCCNC(=O)[C@H](CCC(=O)O)NC(=O)[C@H](CCCCNC(=O)CNC(=O)CCCc2ccc(F)cc2)NC(=O)[C@H](CCC(=O)O)NC(=O)CN2CCN(CC(=O)O)CCN(CC(=O)O)CCN(CC(=O)O)CC2)C(N)=O)NC(=O)CNC(=O)[C@H](Cc2ccc3ccccc3c2)NC(=O)[C@@H](CCCNC(=N)N)NC1=O [[^68Ga]Ga-BL27, metal not drawn] (FY[Lys(iPr)][dR][2Nal]G[dE][Lys(iPr)]K([Glu-X1])-NH2; lactam N-7)
tissue uptake at 3 h [1, 3]: 10.4 %ID/g
tissue uptake at 1 h [1, 4]: 8.78 %ID/g
tissue uptake at 3 h [1, 5]: 0.58 %ID/g
tissue uptake at 1 h [1, 5]: 1.66 %ID/g
tissue uptake at 3 h [1, 6]: 0.95 %ID/g
tissue uptake at 1 h [1, 6]: 4.6 %ID/g
tissue uptake at 3 h [1, 7]: 0.27 %ID/g
tissue uptake at 1 h [1, 7]: 0.66 %ID/g
tissue uptake at 3 h [1, 8]: 0.03 %ID/g
tissue uptake at 1 h [1, 8]: 0.07 %ID/g
tissue uptake at 3 h [1, 9]: 0.09 %ID/g
tissue uptake at 1 h [1, 9]: 0.35 %ID/g
tissue uptake at 3 h [1, 10]: 0.32 %ID/g
tissue uptake at 1 h [1, 10]: 1.27 %ID/g
tissue uptake at 3 h [1, 11]: 0.36 %ID/g
tissue uptake at 1 h [1, 11]: 0.85 %ID/g
tissue uptake at 3 h [1, 12]: 4.77 %ID/g
tissue uptake at 1 h [1, 12]: 6.21 %ID/g
tissue uptake at 3 h [1, 13]: 2.64 %ID/g
tissue uptake at 1 h [1, 13]: 2.61 %ID/g
tissue uptake at 3 h [1, 14]: 2.1 %ID/g
tissue uptake at 1 h [1, 14]: 7.23 %ID/g
tissue uptake at 3 h [1, 15]: 0.13 %ID/g
tissue uptake at 1 h [1, 15]: 0.43 %ID/g
tissue uptake at 3 h [1, 16]: 0.26 %ID/g
tissue uptake at 1 h [1, 16]: 0.62 %ID/g
tissue uptake at 3 h [1, 17]: 1.06 %ID/g
tissue uptake at 1 h [1, 17]: 2.82 %ID/g
tissue uptake at 3 h [1, 18]: 0.12 %ID/g
tissue uptake at 1 h [1, 18]: 0.19 %ID/g
tissue uptake at 3 h [1, 19]: 0.31 %ID/g
tissue uptake at 1 h [1, 19]: 0.8 %ID/g
Ratio Tumor: Blood [2]: 10.85
Ratio Tumor: Bone [2]: 38.31
Ratio Tumor: Liver [2]: 3.91
Ratio Tumor: Lung [2]: 5.59
Ratio Tumor: Muscle [2]: 83.68
Ratio Tumor: Spleen [2]: 10.08
Ratio Tumour:Blood [2]: 1.99
Ratio Tumour:Bone [2]: 13.68
Ratio Tumour:Liver [2]: 3.46
Ratio Tumour:Lung [2]: 1.27
Ratio Tumour:Muscle [2]: 21.47
Ratio Tumour:Spleen [2]: 3.37

Cc1ccc(CCCC(=O)NCC(=O)NCCCC[C@H](NC(=O)[C@H](CCC(=O)O)NC(=O)CN2CCN(CC(=O)O)CCN(CC(=O)O)CCN(CC(=O)O)CC2)C(=O)N[C@@H](CCC(=O)O)C(=O)NCCCC[C@H](NC(=O)[C@H](CCCCNC(C)C)NC(=O)[C@H]2CCC(=O)N[C@@H](Cc3ccccc3)C(=O)N[C@@H](Cc3ccc(O)cc3)C(=O)N[C@@H](CCCCNC(C)C)C(=O)N[C@H](CCCNC(=N)N)C(=O)N[C@@H](Cc3ccc4ccccc4c3)C(=O)NCC(=O)N2)C(N)=O)cc1 [[^68Ga]Ga-BL28, metal not drawn] (FY[Lys(iPr)][dR][2Nal]G[dE][Lys(iPr)]K([Glu-X2])-NH2; lactam N-7)
tissue uptake at 3 h [1, 3]: 7.82 %ID/g
tissue uptake at 1 h [1, 4]: 4.59 %ID/g
tissue uptake at 3 h [1, 5]: 2.46 %ID/g
tissue uptake at 1 h [1, 5]: 2.53 %ID/g
tissue uptake at 3 h [1, 6]: 11.6 %ID/g
tissue uptake at 1 h [1, 6]: 14.7 %ID/g
tissue uptake at 3 h [1, 7]: 0.94 %ID/g
tissue uptake at 1 h [1, 7]: 1.14 %ID/g
tissue uptake at 3 h [1, 8]: 0.17 %ID/g
tissue uptake at 1 h [1, 8]: 0.19 %ID/g
tissue uptake at 3 h [1, 9]: 0.56 %ID/g
tissue uptake at 1 h [1, 9]: 0.64 %ID/g
tissue uptake at 3 h [1, 10]: 2.29 %ID/g
tissue uptake at 1 h [1, 10]: 3.21 %ID/g
tissue uptake at 3 h [1, 11]: 1 %ID/g
tissue uptake at 1 h [1, 11]: 1.21 %ID/g
tissue uptake at 3 h [1, 12]: 4.76 %ID/g
tissue uptake at 1 h [1, 12]: 5.41 %ID/g
tissue uptake at 3 h [1, 13]: 2.92 %ID/g
tissue uptake at 1 h [1, 13]: 2.92 %ID/g
tissue uptake at 3 h [1, 14]: 5.35 %ID/g
tissue uptake at 1 h [1, 14]: 7.11 %ID/g
tissue uptake at 3 h [1, 15]: 0.76 %ID/g
tissue uptake at 1 h [1, 15]: 0.96 %ID/g
tissue uptake at 3 h [1, 16]: 1.21 %ID/g
tissue uptake at 1 h [1, 16]: 1.49 %ID/g
tissue uptake at 3 h [1, 17]: 2.34 %ID/g
tissue uptake at 1 h [1, 17]: 2.21 %ID/g
tissue uptake at 3 h [1, 18]: 0.38 %ID/g
tissue uptake at 1 h [1, 18]: 0.47 %ID/g
tissue uptake at 3 h [1, 19]: 2.05 %ID/g
tissue uptake at 1 h [1, 19]: 1.73 %ID/g
Ratio Tumor: Blood [2]: 0.68
Ratio Tumor: Bone [2]: 8.55
Ratio Tumor: Liver [2]: 2.71
Ratio Tumor: Lung [2]: 1.46
Ratio Tumor: Muscle [2]: 10.49
Ratio Tumor: Spleen [2]: 3.38
Ratio Tumour:Blood [2]: 0.31
Ratio Tumour:Bone [2]: 4.12
Ratio Tumour:Liver [2]: 1.59
Ratio Tumour:Lung [2]: 0.65
Ratio Tumour:Muscle [2]: 4.82
Ratio Tumour:Spleen [2]: 2.08
